This passage reports EC50 results from BindingDB's records for doi:10.1016/s0960-894x(00)00535-7 (Kyoto University, 2000).

This experiment in a line: Inhibition of HIV-induced cytopathogenicity in MT-4 cell. (Cytopathic effects are the visible damage that an infection or toxin causes in cultured cells.)

Consider `NCCCC[C@@H]1NC(=O)[C@H](CCCN=C(N)N)NC(=O)[C@H](Cc2ccc(O)cc2)NC(=O)[C@@H](NC(=O)[C@H](Cc2ccc3ccccc3c2)NC(=O)[C@H](CCCN=C(N)N)NC(=O)[C@@H](N)CCCNC(N)=O)CSSC[C@@H](C(=O)N[C@@H](CCCN=C(N)N)C(=O)O)NC(=O)[C@H](CCCNC(N)=O)NC(=O)[C@H](CCCN=C(N)N)NC(=O)[C@H](Cc2ccc(O)cc2)NC(=O)[C@@H]2CCCN2C(=O)[C@@H](CCCCN)NC1=O`, for which the EC50 (in general, the concentration that produces a half-maximal response) was determined as 15 nM.
